Results published in US20250213647A1, “CHEMOKINE RECEPTORS AND ALPHA1 ADRENERGIC RECEPTORS/VASOPRESSIN RECEPTORS 1A HETEROMERS AS DRUG TARGETS FOR DISEASE” (UNIVERSITY OF SOUTH FLORIDA, priority 2022, published 2025).

Key:
CCR2 [1] = molecular target: T1, CCR2 (Homo sapiens, UniProt P41597); assay: BRET assay for β-arrestin recruitment, HEK293T with CCR2-Rluc and β-arrestin-YFP without α1b-AR; format: cell-based; details: 10 μM PE, PT or 100 nM INCB3284, FIG. 5C
Protocol: (§1) β-arrestin recruitment was measured by BRET, as described (Armando, 2014; Berchiche, 2011). In brief, HEK293T cells were plated in a 6-well plate and transfected with 0.1 μg of CCR2-RluII and 1.9 μg β-arrestin-YFP with 0.1 μg pcDNA3.1 or α1b-AR. One day after transfection, cells were re-plated into 96-well poly-L lysine precoated plates. After overnight incubation, cells were replaced with 0.1% glucose/PBS. Coelenterazine H in a final concentration of 5 μM was added to cells and incubated at room temperature for 3 min. […] The BRET changes were calculated by subtracting the BRET signal of untreated cells.

CCR2 [2] = molecular target: T1, CCR2; assay: Gαi activation assay (TRUPATH BRET), HEK293T cells transfected with CCR2 plus pcDNA3 (CCR2 alone); format: cell-based; details: cells transfected with CCR2 alone; 10 μM PE or PT; FIG. 4B, 4E
Protocol: (§2) HEK293T cells were plated in a 6-well plate and transfected with 0.2 μg each of Gαi1-Rluc8, Gβ3 and Gγ9-GFP2 (Trupath) together with 0.2 μg of mouse or human CCR2 with either pcDNA3.1 or α1b-AR. One day after transfection, cells were trypsinized and replated to 96-well poly-L lysine precoated plates. After overnight incubation, cells were replaced with 0.1% glucose/PBS. Prolume Purple (NanoLight Tech.) or coelenterazine 400a in a final concentration of 5 μM were added in experiments with human or mouse CCR2, respectively, and incubated at room temperature for 3 min. Ligands at various concentrations were added to cells and incubated at room temperature for 5 min before luminescence was measured at 410 nm and 515 nm. […] The BRET changes were calculated by subtracting the BRET signal of untreated cells.

CCR1 [3] = assay: Chemotaxis assay, THP-1 cells toward CCL23 (CCR1-mediated); format: cell-based, human; details: CCL23 10 nM, mean±SE, read-out: IC50 for inhibition of CCR1-mediated chemotaxis
Protocol: (§3) Cell migration was measured employing the Neuroprobe (Gaithersburg, MD, USA) ChemoTx® Disposable Chemotaxis System. A 96-well Boyden-chamber (30 μL/well, 8 μm pores, 1×10^5 pores/cm^2 pore density) was selected for all chemotaxis experiments. Bottom wells of the Boyden-chamber were loaded with 30 μL of test substances at various concentrations. Top wells of the membrane were loaded with 25 μL of THP-1 cells, THP-1_ADRA1B^KO, wild type THP-1 cells after clonal expansion (=control for THP-1_ADRA1B^KO) or freshly isolated monocytes (200 cells/μL). THP-1 cells were suspended in depleted RPMI1640 (0.5% HyClone™ fetal bovine serum, Sigma); Freshly isolated monocytes were suspended in RPMI1640 (0.5% human platelet poor plasma, Sigma). After 3 hours, transmigrated cells were counted utilizing the Cytation 1 plate reader (BioTek) by direct imaging in high contrast bright field (4×) and post-imaging particle analyses with Gen5 (v3.05) Imaging & Microscopy Software (BioTek). The chemotactic index (CI) was calculated as the ratio of cells that transmigrated in the presence versus the absence of the test solutions.

α1b-AR:CCR2 heteromer = molecular target: T2, α1b-AR:CCR2 heteromer (Homo sapiens, UniProt P35368+P41597); assay: Gαi activation assay (TRUPATH BRET), HEK293T cells transfected with CCR2 plus α1b-AR; format: cell-based; details: for Gαi1 activation by the ligand alone: cells transfected with α1b-AR alone, CCR2 alone or CCR2 plus α1b-AR, FIG. 4A
T2 construct: expressed in transfected cells; host or cells: HEK293T
T2 sequence (P41597 whole entry): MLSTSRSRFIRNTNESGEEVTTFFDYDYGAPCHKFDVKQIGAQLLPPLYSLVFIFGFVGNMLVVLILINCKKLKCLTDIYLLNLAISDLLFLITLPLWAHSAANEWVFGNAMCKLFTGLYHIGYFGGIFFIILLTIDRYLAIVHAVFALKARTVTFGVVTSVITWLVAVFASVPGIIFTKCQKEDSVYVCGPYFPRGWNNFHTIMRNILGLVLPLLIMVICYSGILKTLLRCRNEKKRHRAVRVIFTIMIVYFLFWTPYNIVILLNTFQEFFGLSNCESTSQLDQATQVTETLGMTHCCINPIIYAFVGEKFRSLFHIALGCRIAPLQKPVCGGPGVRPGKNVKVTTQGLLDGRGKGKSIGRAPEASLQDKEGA
T2 sequence (P35368 whole entry): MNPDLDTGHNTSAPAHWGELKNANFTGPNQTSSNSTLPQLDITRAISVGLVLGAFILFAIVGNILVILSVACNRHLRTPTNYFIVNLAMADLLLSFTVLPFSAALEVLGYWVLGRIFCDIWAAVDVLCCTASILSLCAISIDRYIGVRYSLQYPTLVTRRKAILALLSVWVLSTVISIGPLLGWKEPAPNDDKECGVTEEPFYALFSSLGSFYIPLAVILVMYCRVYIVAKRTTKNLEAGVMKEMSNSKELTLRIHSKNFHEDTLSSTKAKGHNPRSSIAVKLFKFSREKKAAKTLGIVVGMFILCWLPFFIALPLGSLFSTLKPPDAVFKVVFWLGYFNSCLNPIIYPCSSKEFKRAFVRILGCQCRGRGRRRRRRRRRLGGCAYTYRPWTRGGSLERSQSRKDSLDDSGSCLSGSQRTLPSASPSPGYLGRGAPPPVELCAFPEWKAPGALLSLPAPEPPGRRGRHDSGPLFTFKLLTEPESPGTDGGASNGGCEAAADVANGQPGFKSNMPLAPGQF
Protocol: as §2

[4] = test system: CR heteromerization partners of α1B/D-ARs (CCR1, CCR2, CXCR4); assay: Chemotaxis assay, THP-1 cells, CR heteromerization partners of α1B/D-ARs taken together; format: cell-based, human; details: for chemotactic dose-responses for CCL23, CCL2 and CXCL12 in the presence of the ligand: 10 μM of phenylephrine or phentolamine, FIG. 17G-17I
Protocol: as §3

CXCR4 [5] = details: previous observations (Gao, 2018); cited from earlier work
CCR8 [6] = assay: Chemotaxis assay, THP-1 cells toward CCL1 (CCR8-mediated); format: cell-based, human
Protocol: as §3

CCR2:α1b-AR heteromers = CCR2:α1b-AR heteromers (Homo sapiens, UniProt P35368+P41597); assay: BRET assay for β-arrestin recruitment, HEK293T co-expressing CCR2-Rluc, β-arrestin-YFP and α1b-AR; format: cell-based; design: expressed in transfected cells; details: CCL2 plus 10 μM ligand; FIG. 5D
Sequence of CCR2:α1b-AR heteromers (P41597 whole entry): as the sequence (P41597 whole entry) above
Sequence of CCR2:α1b-AR heteromers (P35368 whole entry): as the sequence (P35368 whole entry) above
Protocol: as §1

[7] = test system: α1B/D-AR, CCR1, CCR2, CXCR4, CCR8; assay: Proximity ligation assay, individual receptors on THP-1 cells; details: 10 μM, 30 min at 37° C., FIG. 6; for cell surface expression of α1B/D-AR, CCR1, CCR2 and CXCR4 (PLA signals): vs vehicle
CXCR4 [8] = assay: Chemotaxis assay, THP-1 cells toward CXCL12 (CXCR4-mediated); format: cell-based, human; details: CXCL12 100 nM, mean±SE, read-out: IC50 for inhibition of CXCR4-mediated chemotaxis
Protocol: as §3

CCR1 [9] = assay: Chemotaxis assay, human monocytes toward CCL23 (CCR1-mediated); format: cell-based; details: mean±SE, read-out: IC50 for inhibition of CCR1-mediated chemotaxis
Protocol: as §3

CCR2 [10] = molecular target: T1, CCR2; assay: Chemotaxis assay, human monocytes toward CCL2 (CCR2-mediated); format: cell-based; design: host or cells: THP-1; details: mean±SE, read-out: IC50 for inhibition of CCR2-mediated chemotaxis
Protocol: as §3

[11] = test system: CR heteromerization partners of α1B/D-ARs (CCR1, CCR2, CXCR4); assay: Chemotaxis assay, human monocytes, CR heteromerization partners of α1B/D-ARs taken together; format: cell-based; details: FIG. 17B
Protocol: as §3

CCR8 [12] = assay: Chemotaxis assay, human monocytes toward CCL1 (CCR8-mediated); format: cell-based
Protocol: as §3

CXCR4 [13] = assay: Chemotaxis assay, human monocytes toward CXCL12 (CXCR4-mediated); format: cell-based; details: mean±SE, read-out: IC50 for inhibition of CXCR4-mediated chemotaxis
Protocol: as §3

CCR2 [14] = molecular target: T1, CCR2; assay: CCR2 internalization in THP-1 cells (flow cytometry); format: cell-based; design: host or cells: THP-1; details: 100 nM CCL2 plus 1 μM PE, 0-45 min at 37° C.; FIG. 7A/B
Protocol: To examine receptor internalization in THP-1 cells, cells were incubated with 100 nM CCL2 or with 100 nM CCL2 plus 1 μM PE for 0-45 min at 37° C. Cells were then cooled on ice and washed with 50 mM glycine buffer, pH 2.7, 150 mM NaCl, followed by washing with ice-cold PBS. Cell surface CCR2 was probed with anti-CCR2 and corresponding secondary Alexa 488-conjugated antibodies. Receptor cell surface expression levels are examined by flow cytometry and expressed as the median fluorescence intensity (MFI) in percent of the MFI measured at 0 min (=100%).

T1 sequence (P41597 whole entry): as the sequence (P41597 whole entry) above

Row | SMILES | effect on the CCL2-induced BRET signal (CCR2-Rluc / β-arrestin-YFP) (CCR2 [1]) | effect on CCL2-induced Gαi1 activation (CCR2 [2]) | IC50 (CCR1 [3]) | Gαi1 activation by the ligand alone (α1b-AR:CCR2 heteromer) | chemotactic dose-responses for CCL23, CCL2 and CXCL12 in the presence of the ligand [4] | CXCR4-mediated chemotaxis of primary human vascular smooth muscle cells (CXCR4 [5]) | CCR8-mediated chemotaxis (CCR8 [6]) | cell surface expression of α1B/D-AR, CCR1, CCR2 and CXCR4 (PLA signals) [7] | IC50 (CXCR4 [8]) | further results
1 | Cc1ccc(N(CC2=NCCN2)c2cccc(O)c2)cc1 [phentolamine] | not affected | did not affect | 0.03 ± 0.08 nM | did not activate Gαi1 | inhibited chemotaxis over the complete range of chemokine concentrations | inhibit | did not affect | did not affect | 0.2 ± 0.2 nM | bottom plateau, CCL2-induced Gαi activation in the presence of the ligand (α1b-AR:CCR2 heteromer; CCL2 plus 10 μM PT, FIG. 4F): −0.033±0.002; Top plateau, β-arrestin recruitment BRET in the presence of the ligand (CCR2:α1b-AR heteromers): 0.061±0.002
2 | CNC[C@H](O)c1cccc(O)c1 [phenylephrine] | not affected | did not affect | 5 ± 6.7 nM | did not activate Gαi1 | inhibited chemotaxis over the complete range of chemokine concentrations | inhibit | did not affect | reduced | 17 ± 29 nM | bottom plateau, CCL2-induced Gαi activation in the presence of the ligand (α1b-AR:CCR2 heteromer; CCL2 plus 1 μM NE, FIG. 4D): −0.031±0.002; bottom plateau, CCL2-induced Gαi activation in the presence of the ligand (α1b-AR:CCR2 heteromer; CCL2 plus 10 μM PE, FIG. 4C): −0.03±0.002; IC50 (CCR1 [9]): 12 ± 8 nM; inhibition of chemotaxis mediated via CR heteromerization partners of α1B/D-ARs ([4]; FIG. 17A): 50-55%; IC50 (CCR2 [10]): 37 ± 26 nM; inhibition of chemotaxis mediated via CR heteromerization partners of α1B/D-ARs [11]: 60-77%; CCL1-induced chemotaxis (CCR8 [12]): not affected; IC50 (CXCR4 [13]): 6 ± 3 nM; CCR2 cell surface expression, CCL2 plus ligand vs CCL2 alone (CCR2 [14]): significantly reduced CCR2 expression; expression of CCR8 (PLA signals) [7]: not affected
